Assays:
Type in all cases: in vivo
Settings in all cases: active ingredient amount 31 g/ha, 14th day after application
[1] = system: green foxtail (Setaria viridis L.); assay: Test Example 1: foliar treatment, growth inhibition rate on 14th day
Procedure, shortened: (§1)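 Plants in upland soil were sprayed on the foliage at early leaf stages (wild oat 0.4–1.2, rice 0.2–2.7, green foxtail 0.5–3.2, soybean primary leaf) with wettable powder or emulsifiable concentrate formulations. Spray volume was 1,000 L/ha water containing 0.1 vol% spreader, at prescribed active-ingredient rates. Growth inhibition (0 = untreated, 100 = complete kill) was scored visually on day 14.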

[2] = system: crabgrass (Digitaria sanquinalis L.); assay: as above
Procedure, shortened: (§2)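 Visual 0–100% inhibition scoring (100 = complete kill) at 14 days after foliar treatment of soil-grown seedlings at species-specific leaf stages, with the compound sprayed as a wettable powder or emulsifiable concentrate dilution.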

rice (Oryza sativa L.) [3] = assay: as above
Procedure, shortened: as §1

corn (Zea mays L.) [4] = assay: as above
Procedure, shortened: as §2

[5] = system: redroot pigweed (Amaranthus retroflexus L.); assay: as above
Procedure, shortened: as §2

[6] = system: wild oat (Avena fatua L.); assay: as above
Procedure, shortened: as §1

[7] = system: italian ryegrass (Lolium multiflorum Lam.); assay: as above
Procedure, shortened: as §2

[8] = system: wheat (Triticum aestivum L.); assay: as above
Procedure, shortened: as §2

[9] = system: soybean (Glycine max Merr.); assay: as above
Procedure, shortened: as §1

[10] = system: barnyardgrass (Echinochloa crus-qalli L.); assay: as above
Procedure, shortened: as §2

[11] = system: green foxtail (Setaria viridis L.); assay: Test Example 2: soil application on the day after sowing, growth inhibition rate on 14th day
Procedure, shortened: (§3)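 Pre-emergence soil spray on upland soil the day after sowing; wettable powder or emulsifiable concentrate diluted in water at 1,000 L/ha, dosed to prescribed active-ingredient amounts. Visual growth inhibition scored 14 days after application, 0 (untreated-equivalent) to 100 (complete kill).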

rice (Oryza sativa L.) [12] = assay: as above
Procedure, shortened: as §3

[13] = system: prickly sida (Sida spinosa L.); assay: as above
Procedure, shortened: as §3

[14] = system: velvetleaf (Abutilon theophrasti MEDIC.); assay: as above
Procedure, shortened: as §3

corn (Zea mays L.) [15] = assay: as above
Procedure, shortened: as §3

[16] = system: redroot pigweed (Amaranthus retroflexus L.); assay: as above
Procedure, shortened: as §3

[17] = system: wheat (Triticum aestivum L.); assay: as above
Procedure, shortened: as §3

[18] = system: soybean (Glycine max Merr.); assay: as above
Procedure, shortened: as §3

[19] = system: barnyardgrass (Echinochloa crus-qalli L.); assay: as above
Procedure, shortened: as §3

[20] = system: crabgrass (Digitaris sanquinalis L.); assay: as above
Procedure, shortened: as §3

[21] = visual, 0 = non-treated, 100 = complete kill

| SMILES | Growth inhibition rate (%) Green foxtail [1] | Growth inhibition rate (%) Crabgrass [2] | Growth inhibition rate (%) Rice (rice (Oryza sativa L.) [3]) | Growth inhibition rate (%) Corn (corn (Zea mays L.) [4]) | Growth inhibition rate (%) Redroot pigweed [5] | Growth inhibition rate (%) Wild oat [6] | Growth inhibition rate (%) Italian ryegrass [7] | Growth inhibition rate (%) Wheat [8] | Growth inhibition rate (%) Soybean [9] | Growth inhibition rate (%) Barnyardgrass [10] | Growth inhibition rate (%) Green foxtail [11] | Growth inhibition rate (%) Rice (rice (Oryza sativa L.) [12]) | Growth inhibition rate (%) Prickly sida [13] | Growth inhibition rate (%) Velvetleaf [14] | Growth inhibition rate (%) Corn (corn (Zea mays L.) [15]) | Growth inhibition rate (%) Redroot pigweed [16] | Growth inhibition rate (%) Wheat [17] | Growth inhibition rate (%) Soybean [18] | Growth inhibition rate (%) Barnyardgrass [19] | Growth inhibition rate (%) Crabgrass [20] | also measured |
| --- | --- | --- | --- | --- | --- | --- | --- | --- | --- | --- | --- | --- | --- | --- | --- | --- | --- | --- | --- | --- | --- |
| Cc1ccc(Oc2cc(C(F)(F)F)c(C(F)(F)F)cn2)cc1-c1c(O)c(C)nn(C)c1=O [Compound 2-93] | 100% | 99% | 0% | 95% | 20% | 30% | 88% | 0% | 10% | 100% | 99% | 0% | 0% | 0% | 0% | 0% | 0% | 0% | 100% | 99% |  |
| CC(=O)Oc1cnn(C(C)C)c(=O)c1-c1cc(Oc2nc3ccc(Cl)cc3o2)ccc1C [Compound 2-172] | 99% | 98% | 30% | 98% | 0% | 40% | 35% | 10% | 40% | 100% | 20% | 0% | 0% | 0% | 0% | 0% | 0% | 0% | 60% | 30% |  |
| C=CCOC(=O)Oc1c(C)nn(C)c(=O)c1-c1cc(Oc2cnc3cc(Cl)ccc3n2)ccc1C [Compound 3-58] |  |  |  |  |  |  |  |  |  |  | 75% | 0% | 0% | 0% | 0% | 0% | 0% | 0% | 85% | 10% | Growth inhibition rate (%) Green foxtail [1, 21]: 100%; Growth inhibition rate (%) Crabgrass [2, 21]: 99%; Growth inhibition rate (%) Rice (rice (Oryza sativa L.) [3]; [21]): 50%; Growth inhibition rate (%) Corn (corn (Zea mays L.) [4]; [21]): 55%; Growth inhibition rate (%) Redroot pigweed [5, 21]: 0%; Growth inhibition rate (%) Wild oat [6, 21]: 95%; Growth inhibition rate (%) Italian ryegrass [7, 21]: 99%; Growth inhibition rate (%) Wheat [8, 21]: 98%; Growth inhibition rate (%) Soybean [9, 21]: 25%; Growth inhibition rate (%) Barnyardgrass [10, 21]: 100% |
| Cc1ccc(Oc2nc3ccc(Br)cc3s2)cc1-c1c(O)c(C)nn(C)c1=O [Compound 2-156] | 98% | 93% | 0% | 0% | 0% | 10% | 30% | 0% | 0% | 98% | 98% | 15% | 0% | 0% | 0% | 0% | 0% | 0% | 83% | 75% |  |

— patent US10870638B2, “Pyridazinone compound or its salt, and herbicide containing it” (ISHIHARA SANGYO KAISHA, LTD., priority 2016, dated 2020)
